Where a SMILES comes first, the peptide text is derived from it. Bridges are numbered along the chain shown (N, C = ends). [ ]: non-standard residue; d: D form. The star is where a group is joined. ξ: configuration not given here. Decanoyl(3R-OH) = CCCCCCC[C@@H](O)CC(=O)*; Decanoyl = CCCCCCCCCC(=O)*; dDab = NCC[C@@H](N)C(=O)O; Dab = NCC[C@H](N)C(=O)O; ξDab = NCCC(N)C(=O)O
Legend:
[1] = test system: P. aeruginosa; test: Activity against challenge panel of 207 P. aeruginosa isolates (MIC50/MIC90); format: cell-based; conditions: Pseudomonas aeruginosa
Procedure: (§1) Dry Powder Formulation and in vivo Efficacy of UOM-001 and UOM-005 in a Lung Infection Model. […] The activity of DPI UOM-001 and comparator antibiotics was assessed against a challenge panel consisting of 207 P. aeruginosa isolates collected from different parts of the world; 105 isolates were enriched for resistance against β-lactam/β-lactamase inhibitor combinations (Table 6). […] The teixobactin-lipopeptide hybrids have a labile linker between the two antibiotic components that allows for sustained release of each component at the infection site simultaneously, thereby targeting their synergistic activity. Whereas the individual components when administered together likely display different disposition, uptake, and elimination characteristics, and therefore become diffusely distributed from each other, resulting in the loss of antibacterial synergy. […] In contrast, following intravenous administration of an identical dose, the ELF concentration of UOM-001 was below the limit of quantification (0.1 μg/mL). […] Pulmonary surfactant is a primary component of the ELF which can bind antibiotics that can impede the antibacterial activity of the drug. The binding of UOM-001 and teixobactin (5 mg/L for 4 h 37° C.) to lung surfactant or its individual components was determined by ultracentrifugation and LC-MS (FIG. 5C). The low binding of UOM-001 to lung surfactant is consistent with its good efficacy in the lung infection model. The effect of surfactant on the in vitro antibacterial activity of UOM-001 was assessed with the use of three polymyxin-resistant P. aeruginosa cystic fibrosis isolates. Beractant (Survanta™; Abbott Laboratories) served as the pulmonary surfactant. Beractant is a bovine-derived surfactant containing 25 mg/mL phospholipids. Although its composition differs slightly from that of human surfactant, it is functionally equivalent. For surfactant testing, the bacterial growth medium was supplemented with 10% beractant (=2.5 mg/mL). Since the surfactant produces turbidity, the minimum bactericidal concentration (MBC) was used to compare potency of UOM-001 in the absence or presence of surfactant. The MBCs of UOM-001 (0.125-0.5 mg/L) were not affected even when tested with the highest concentrations of surfactant (2.5 mg/mL, 10%).

[2] = test system: Gram-negative bacteria; test: Antibacterial activity against Gram-negative bacteria; format: cell-based
Text: (§2) Polymyxin lipopeptides can act as powerful potentiators for FDA-approved non-antibiotic drugs, by permeabilizing the Gram-negative outer membrane, allowing the non-antibiotic drug to enter the bacterial cell and reach its intracellular targets (Hussein et al. (2018) Comput. Struct. Biotechnol. J. 16:587-599; Hussein et al. (2017) Microbiol. Drug Resist. 23:640-650; Jasim et al. (2017) J. Biomed. Nanotechnol. 13:447-457; Schneider et al. (2016) ACS Infect. Dis. 2:478-488; Tran et al. (2018) Front. Pharmacol. 9:359; Tran et al. (2018) Front. Microbiol. 9:721; Schneider et al. (2017) Essays Biochem. 61:115-125; Diep et al. (2017) Antimicrob. Agents Chemother. 61; Rao et al. (2016) J. Antimicrob. Chemother. 71:3148-3156; Sharma et al. (2017) Int. J. Antimicrob. Agents 49:224-232).

[3] = test system: Gram-positive bacteria; test: Antibacterial activity against Gram-positive bacteria; format: cell-based
Text: as §2

[4] = test system: PDR P. aeruginosa; test: Activity against challenge panel of 207 P. aeruginosa isolates (MIC50/MIC90); format: cell-based; conditions: P. aeruginosa (n = 207)
Procedure: as §1

[5] = test system: P. aeruginosa; test: MIC determination, P. aeruginosa strains; format: cell-based; conditions: 11 PDR P. aeruginosa strains
Text: (§3) Agents Chemother. 61; Rao et al. (2016) J. Antimicrob. Chemother. 71:3148-3156; Sharma et al. (2017) Int. J. Antimicrob. Agents 49:224-232). Subsequently, this SAR-based design strategy has been expanded to include teixobactins conjugated via labile and non-labile linkers to the polymyxin-lipopeptides (e.g., polymyxin B nonapeptide, FADDI-002 and octapeptin C4) (Velkov et al. (2018) Cell Chem. Biol. 25:380-391 e385; Velkov et al. (2013) Future Microbiol. 8:711-724; Velkov et al. (2014) ACS Chem. Biol. 9:1172-1177; Velkov et al. (2010) J. Med. Chem 53:1898-1916), which generated potent teixobactin lipopeptide hybrids active against teixobactin-resistant PDR Gram-negative ‘superbugs’ (Table 4).

[6] = test system: pulmonary infections; conditions: 230 critically-ill patients, cited from earlier work
[7] = test system: A. baumannii; test: MIC determination, A. baumannii strains; format: cell-based; conditions: 4 PDR A. baumannii strains
Text: as §3

[8] = test system: S. aureus; test: MIC determination, S. aureus strains; format: cell-based; conditions: 3 PDR S. aureus strains
Text: as §3

[9] = test system: P. aeruginosa FADDI-PA021m; test: MIC against polymyxin-resistant cystic fibrosis isolate FADDI-PA021m; format: cell-based
[10] = test system: P. aeruginosa FADDI-PA021m; test: Static time-kill study, FADDI-PA021m; format: cell-based; conditions: native teixobactin or polymyxin B (MICs >128 mg/L)

| Molecule | MIC50 [1] | MIC90 [1] | MIC50 [4] | MIC90 [4] | further results |
| --- | --- | --- | --- | --- | --- |
| NCC[C@H](O)C(=O)N[C@@H]1C[C@H](N)[C@@H](O[C@H]2O[C@H](CN)[C@@H](O)[C@H](O)[C@H]2O)[C@H](O)[C@H]1O[C@H]1O[C@H](CO)[C@@H](O)[C@H](N)[C@H]1O [AMK, amikacin] | 16 µg/mL | > 32 µg/mL |  |  |  |
| CCCCCCCCCC(=O)N[C@H](CCN)C(=O)N[C@H]1CCNC(=O)[C@H](CC(C)C)NC(=O)[C@H](CCN)NC(=O)[C@H](CCN)NC(=O)[C@H](CC(C)C)NC(=O)[C@@H](Cc2ccccc2)NC(=O)[C@H](CCN)NC1=O [FADDI-115] (Decanoyl-[dDab][Dab][Dab][dF]L[Dab][Dab]L; lactam 2-C) |  |  |  |  | activity against Gram-negative bacteria [2]: potent activity; activity against Gram-positive bacteria [3]: potent activity |
| C[C@H]1COc2c(N3CCN(C)CC3)c(F)cc3c(=O)c(C(=O)O)cn1c23 [LEVO, levofloxacin] | 8 µg/mL | > 16 µg/mL |  |  |  |
| C[C@@H](O)[C@H]1C(=O)N2C(C(=O)O)=C(S[C@@H]3CN[C@H](C(=O)N(C)C)C3)[C@H](C)[C@H]12 [MER, meropenem] | 16 µg/mL | > 32 µg/mL |  |  |  |
| CCCCCCC[C@@H](O)CC(=O)N[C@H](CCN)C(=O)NC1CCNC(=O)[C@H](CC(C)C)NC(=O)[C@H](CCN)NC(=O)[C@H](CCN)NC(=O)[C@H](CC(C)C)NC(=O)[C@@H](Cc2ccccc2)NC(=O)[C@H](CCN)NC1=O (stereo partly drawn) [octapeptin C4] ({Decanoyl(3R-OH)}-[dDab][ξDab][Dab][dF]L[Dab][Dab]L; lactam 2-C) |  |  |  |  | activity against Gram-negative bacteria [2]: potent activity; activity against Gram-positive bacteria [3]: potent activity |
| ceftazidime-avibactam [CAZ-AVI] |  |  | 2 µg/mL | 8 µg/mL |  |
| colistin |  |  | 1 µg/mL | 1 µg/mL | colistin MIC (PDR strains) [5]: 8 to 128 µg/mL; efficacy of parenteral colistin for pulmonary infections [6]: disappointing; exposure of colistin at the infection site ([6]; parenteral, pulmonary infections): very limited exposure at the infection site; colistin MIC (PDR strains) [7]: 8 to 128 µg/mL; colistin MIC (PDR strains) [8]: >128 µg/mL |
| gentamicin [GNT] |  |  | 8 µg/mL | >16 µg/mL |  |
| piperacillin-tazobactam [PIP-TAZ] |  |  | 64 µg/mL | >128 µg/mL |  |
| polymyxin B |  |  |  |  | MIC [9]: > 128 µg/mL; killing [10]: no killing was observed |

— US20260295059A1, “BROAD-SPECTRUM ANTIBIOTIC HYBRIDS FOR THE TREATMENT OF MULTI-DRUG RESISTANT INFECTIONS” (priority 2023, published 2026)
